Activity calls are given as the source filed them. The rule behind the calls is not given here.
Tested on: S. cerevisiae expressing PfHSP40, growth rescue, plate reader
Experiment: Yeast growth rescue from Plasmodium falciparum HSP40 toxicity, dose response confirmatory, plate reader (AID 540271);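 note: yeast growth read after three days of incubation at 30 °C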

| Structure (SMILES) | AC50 |
| --- | --- |
| Oc1ccccc1-c1nnc(SCCN2CCOCC2)n1Cc1ccccc1 | 5.94 µM |
| CC(=O)NC(c1cccc([N+](=O)[O-])c1)c1ccc2cccnc2c1O (stereo unspecified) | 3.95 µM |
| Nc1cc2nc3ccccc3oc-2cc1=O | 1.52 µM |
| O=C(Sc1cccc2cccnc12)c1ccccc1Br | 6.63 µM |
| COc1ccc2c(c1)OC[C@H]1[C@H]2N2C(=O)c3cc(C)ccc3NC(=O)[C@@]2(C)[C@H]1c1ccccc1 | 6.11 µM |
| Cc1nc2ccc(NC(=O)COc3cccc(F)c3)cc2s1 | 10.2 µM |
| O/N=C/c1ccccc1OCc1ccc(Cl)cc1 | 5.07 µM |
| Cc1csc(NC(=S)Nc2cccc(Cl)c2)n1 | 11.2 µM |
| CCOC(=O)c1ccc(N2C(=O)CC(N3CCC(O)(c4ccc(Cl)cc4)CC3)C2=O)cc1 (stereo unspecified) | 6.57 µM |
| C=CCNc1nc(-c2ccccn2)nnc1-c1ccccc1 | 10.3 µM |
| Cn1cnc([N+](=O)[O-])c1S(=O)(=O)Oc1ccc(Cl)cc1 | 6.4 µM |
| CC(C)(C)C(=O)C(Oc1ccc(Cl)cc1)n1cncn1 (stereo unspecified) | 4.7 µM |
| CSC1SCC2C(=O)N(C)C(C(C)C)C(=O)OCC(NC(=O)c3cnc4ccccc4n3)C(=O)NC(C)C(=O)N(C)C1C(=O)N(C)C(C(C)C)C(=O)OCC(NC(=O)c1cnc3ccccc3n1)C(=O)NC(C)C(=O)N2C (stereo unspecified) | > 12 µM (inactive) |
| CC1CC(C)CC(C)C(O)C(C#N)=CC=CCC(C2CCCC2C(=O)O)OC(=O)CC(O)C(C)C1 (stereo unspecified) | 5.14 µM |
| CCCCCCN1N=C(C)C(C(=O)c2ccc(Cl)cc2)C1=O (stereo unspecified) | 3.23 µM |
| O=C(N/N=C/c1cc(Cl)cc([N+](=O)[O-])c1O)c1ccccc1NS(=O)(=O)c1cccs1 | 1.04 µM |
| CCCn1nc(C(=O)N2CCN(S(=O)(=O)c3ccc(C)c(C)c3)CC2)c2ccccc2c1=O | 6.13 µM |
| CN(c1ccccc1)c1nc(N2CCCC2)nc(-n2ccnc2)n1 | 1.04 µM |
| Cc1nn(CCC#N)c(N)c1C1(O)C(=O)Nc2c(Cl)cc(Cl)cc21 (stereo unspecified) | 7.66 µM |
| CCCCC(CC)c1nnc(NC(=O)c2cccs2)s1 (stereo unspecified) | 6.66 µM |
| COc1ccc(C(=O)On2c(-c3ccc(Br)cc3)nc3ccccc3c2=O)cc1 | 4.13 µM |

| Structure (SMILES) | AC50 |
| --- | --- |
| O=C(CSc1ccc(-c2ccccn2)nn1)NC1CCCC1 | 11.1 µM |
| O/N=C(\c1ccc(Cl)cc1Cl)c1ncc(C(F)(F)F)cc1Cl | 9.27 µM |
| O=C(CSc1ccc(-c2ccccn2)nn1)NCc1ccccc1 | 6.96 µM |
| O=c1cc(CSc2ccc(Cl)cc2)nc(-c2ccccn2)[nH]1 | 4.13 µM |
| O=C1c2ccccc2NC(c2ccc(-c3ccc(C(F)(F)F)cc3)o2)N1O (stereo unspecified) | 2.4 µM |
| Cc1ccc(-c2nn(C(C)(C)C)c3ncnc(N)c23)cc1 | 1.28 µM |
| O=P(Nc1cccnc1)(Oc1ccccc1Cl)Oc1ccccc1Cl | 6.5 µM |
| Cc1ccc(-c2c3c(nc4sc(C(N)=O)c(N)c24)CCCC3)o1 | 6.13 µM |
| O=c1[nH]c(=O)n(C2OC(CO)C(O)C2O)cc1F (stereo unspecified) | 5.04 µM |
| COc1ccc(-c2sc3ccccc3c2C#Cc2cncn2C)cc1 | 6.77 µM |
| Cc1cccc(C)c1NS(=O)(=O)c1ccc(-c2cnc(C3CC3)o2)cc1 | 6.06 µM |
| CCOc1ccc(N/N=C(/C#N)C(N)=O)cc1 | 4.1 µM |
| CCCCCCCN1N=C(C)C(C(=O)c2ccccc2)C1=O (stereo unspecified) | 3.73 µM |
| CC(C)(C)C(O)C(Cc1ccccc1Cl)n1cncn1 (stereo unspecified) | 0.215 µM |
| CC(C)(C)c1ccc(C(=O)NC(=S)NNC(=O)c2cccs2)cc1 | 1.89 µM |
| CC(C)(C)c1ccc(Oc2ccc(N)cc2)cc1 | 7.32 µM |
| CC1(S(=O)(=O)O)CC(=O)c2ccccc2C1=O (stereo unspecified) | > 12 µM (inactive) |
| CC1(C)C=Cc2c(ccc3c2OC[C@@H](c2ccc(O)cc2O)C3)O1 | 5.69 µM |
| O=C(COC(=O)c1ccc([N+](=O)[O-])o1)NC12CC3CC(CC(C3)C1)C2 | > 12 µM (inactive) |
| CCOC(=O)c1ccc(NC(=S)N(Cc2cccnc2)Cc2ccco2)cc1 | 6.54 µM |
| N#C/C(=C\Nc1ccccc1O)c1nc2ccccc2o1 | 9.96 µM |

| Structure (SMILES) | AC50 |
| --- | --- |
| CC(C)=CCc1c(O)cc(O)c2c1OC(c1ccc(O)cc1)CC2=O (stereo unspecified) | 5.76 µM |
| Cc1ccc(Sc2ccc(NC(=O)CCl)cc2)cc1C | 4.54 µM |
| CC(C)(C)c1ccc(-n2nc(C#N)c(Cl)cc2=O)cc1 | 6.03 µM |
| O=C(COc1ccc([N+](=O)[O-])cc1)Nc1nc(-c2ccccn2)cs1 | 5.37 µM |
| Cc1ccc(SCCNC(=S)Nc2ccc(C)c(C)c2)cc1 | 6.21 µM |
| CC(NC(=S)NC1CCC(C(C)(C)C)CC1)c1ccccc1 (stereo unspecified) | 6.86 µM |
| S=C1SCN(Cc2cccnc2)CN1Cc1cccnc1 | 4.06 µM |
| CCc1ccc(OCc2n[nH]c(=S)n2Cc2ccccc2)cc1 | 5.29 µM |
| COC(=O)C1=NN(C(=O)c2cccc(Br)c2)C(O)(c2ccc(Cl)cc2)C1 (stereo unspecified) | 5.82 µM |
| CCc1oc2ccccc2c1C(=O)c1cc(Br)c(O)c(Br)c1 | 3.28 µM |
| Cc1ccccc1OCC(O)Cn1c2ccccc2c2ccccc21 (stereo unspecified) | 4.74 µM |
| CCCCCCCCCCOC(=O)Cn1c(COc2ccc(OC)cc2)[n+](C)c2ccccc21 | 6.37 µM |
| Cc1cc(-c2ccccc2)n(-c2cc(N/N=C/c3ccccc3O)ncn2)n1 | 5.77 µM |
| COc1ccc(-c2cc(C(=O)NNC(=S)NC(=O)c3c(-c4ccccc4)noc3C)[nH]n2)cc1 | 2.69 µM |
| CC1=C(C)/C(=N\OS(=O)(=O)c2ccc(C)cc2)C=CC1=O | 5 µM |
| COc1ccccc1CNC(=O)CSc1ccc(-c2ccccn2)nn1 | 5.89 µM |
| O=C(NCC1CC1(Cl)Cl)Nc1ccc(Cl)c(Cl)c1 (stereo unspecified) | 5.73 µM |
| O=C(NCCC1=CCCCC1)c1c(O)nc2sccn2c1=O | 3.82 µM |
| CC(C)N1CCN(c2ccc(OC[C@H]3CO[C@](Cn4cncn4)(c4ccc(Cl)cc4Cl)O3)cc2)CC1 | 2 µM |
| CCOC(=O)c1ccc(-c2ccc(C3Nc4ccccc4C(=O)N3O)o2)cc1 (stereo unspecified) | 3.91 µM |
| COc1ccc(N(C(=O)c2ccncc2)S(=O)(=O)c2ccc(F)cc2)cc1 | 5.25 µM |

| Structure (SMILES) | AC50 |
| --- | --- |
| Cc1ccc([C@@H]2CC=C(C(=O)O)[C@H](c3ccc(Br)cc3)N2S(=O)(=O)c2ccccc2C)cc1 | 5.21 µM |
| Cc1ccc(NC(=O)c2cc(N3C(=O)C=CC3=O)ccc2Cl)cc1C | 1.63 µM |
| COc1cccc(-n2nc(C#N)c(Cl)cc2=O)c1 | 5.59 µM |
| Cc1oc2c(c1C(=O)c1ccccc1)C(=O)C(=O)c1ccccc1-2 | 5.65 µM |
| O=C(O)c1ccccc1NS(=O)(=O)c1cccc(-n2sc3ccccc3c2=O)c1 | 4.78 µM |
| Cc1cccc2sc(NNC(=O)c3ccc(S(=O)(=O)N4CCCC(C)C4)cc3)nc12 (stereo unspecified) | 2.81 µM |
| Cc1nnc(N=c2ssnc2Cl)o1 | 3.22 µM |
| O=C1OCC(CO)(CO)N=C1NNc1ccc(Cl)c(Cl)c1 | 1.87 µM |
| CCCS(=O)(=O)c1c(S(=O)(=O)CCC)c2c(C)cccn2c1C(=O)N/N=C/c1cc(O)cc(O)c1 | 3.51 µM |
| CN(C)c1nc(SCc2ccc(Cl)cc2)nc2c1CCCC2 | 5.58 µM |
| COc1ccc2oc(=O)c(-c3csc(Nc4cccc(O)c4)n3)cc2c1 | 4.91 µM |
| Cn1ccc(=Nc2ccc(NC(=O)c3ccc(N=c4ccn(C)c5ccc([N+](=O)[O-])cc45)cc3)cc2)cc1 | 6.48 µM |
| COc1cccc(/C=N/Nc2ncnc3scc(-c4ccccc4)c23)c1O | 1.7 µM |
| Cn1ccsc1=NC(=O)c1ccc([N+](=O)[O-])o1 | > 12 µM (inactive) |
| COc1nc(NC23CC4CC(CC(C4)C2)C3)nc(OC)n1 | 10.9 µM |
| Cc1ccc(C(C)(C)C)cc1S(=O)(=O)Nc1ncnc2sccc12 | 2.83 µM |
| Oc1ccccc1-c1cc(-c2ccc3c(c2)OCCO3)n[nH]1 | 5.24 µM |
| Cc1ccc(-c2nc3ccc(Cl)cc3c(=O)n2O)cc1 | 2.08 µM |
